# How the values were obtained:
# [1] = Outcome variables of patients on each psychotropic drug broken down by demographic factors (Covariates tables); assay type: in vivo, human
# [2] = Physiogenomic SNP association screen: single-SNP coefficients for metabolic syndrome outcomes in patients on psychotropic drugs
# Text: Various SNPs associated with, for example, the observation of various parameters of metabolic syndromes in patients on psychotropic drugs were screened. The endpoints analyzed were the blood levels of LDL, HDL, and glucose; blood pressure; body mass index; waist circumference; and metabolic syndromes index. The physiogenomic model was developed using the following procedure: 1) Establish a covariate model using only the demographic and clinical variables, 2) Screen for associated genetic markers by testing each SNP against the unexplained residual of the covariate model, and 3) Establish a revised model incorporating the significant associations from the SNP screen. All models are simple linear regression models, but other well-known statistical methods are contemplated to be useful.
# In the SNP screen (step 2), the p-values for each SNP were obtained by adding the SNP to the covariate model and comparing the resulting model improvement with up to 10,000 simulated model improvements using the same data set, but with the genotype data randomly permuted to remove any true association. This method produces a p-value that is a direct, unbiased, and model-free estimate of the probability of finding a model as good as the one tested when the null hypothesis of no association is true. All SNPs with a screening p-value of better than 0.003 were selected to be included in the physiogenomic model (step 3).
# Data Analysis. Covariates were analyzed using multiple linear regression and the stepwise procedure. An extended linear model was constructed including the significant covariate and the SNP genotype. SNP genotype was coded quantitatively as a numerical variable indicating the number of minor alleles: 0 for major homozygotes, 1 for heterozygotes, and 2 for minor homozygotes. The F-statistic p-value for the SNP variable was used to evaluate the significance of association. The validity of the p-values were tested by performance of an independent calculation of the p-values using permutation testing. To account for the multiple testing of multiple SNPs, adjusted p-values were calculated using Benjamini and Hochbergs false discovery rate (FDR) procedure [Reinere A, Yekutiele D, Benjamini Y: Identifying differentially expressed genes using false discovery rate controlling procedures. Bioinformatics 19:368-375 (2003); Benjamini Y, Hochberg Y: Controlling the false discovery rate: a practical and powerful approach to multiple testing. Journal of the Royal Statistical Society, Series B 57:289-300 (1995); Benjamini Y, Hochberg Y: On the adaptive control of the false discovery rate in multiple testing with independent statistics. Journal of Educational and Behavioral Statistics 25:60-83 (2000)]. In addition, the power for detecting an association based on the Bonferroni multiple comparison adjustment was evaluated. For each SNP, the effect size in standard deviations that was necessary for detection of an association at a power of 80% (20% false negative rate) was calculated using the formula: […]
# [3] = cited from earlier work
# [4] = Text: b. Model Building. […] A model was developed for the purpose of predicting a given response (Y) to psychotropic drugs. A linear model for subjects in a group of patients subjected to psychotropic drugs was used in which the response of interest can be expressed as follows:
# [formula] where Mi are the dummy marker variables indicating the presence of specified genotypes and Dj are demographic and clinical covariates. The model parameters that are to be estimated from the data are R0, αi and βj. […] S-plus provides very good support for algorithms that provide these estimates for the initial linear regression models, as well other generalized linear models that may be used when the error distribution is not normal. For continuous variables, generalized additive models, including cubic splines in order to appropriately assess the form for the dose-response relationship may also be considered [Hastie T, Tibshirani R. Generalized additive models. Stat. Sci. 1: 297-318 (1986); Durrleman S, Simon R. Flexible regression models with cubic splines. Statistics in Medicine 8:551-561 (1989)].
# In addition to optimizing the parameters, model refinement is performed. The first phase of the regression analysis will consist of considering a set of simplified models by eliminating each variable in turn and re-optimizing the likelihood function. The ratio between the two maximum likelihoods of the original vs. the simplified model then provides a significance measure for the contribution of each variable to the model.
# Each physiotype in this particular embodiment consists of a selection of markers, and intercept value (C), and a coefficient (ci) for each marker. […] The predicted LDL response for a given individual is then given by the formula:
# [formula] where C is the intercept, the ci are the coefficients and the gi are the genotypes, coded 0 for the wild type allele homozygote, 1 for the heterozygote, and 2 for the variant allele homozygote.
compound,measurement,setting,value
"O=C1Cc2cc(CCN3CCN(c4nsc5ccccc45)CC3)c(Cl)cc2N1 [Ziprasidone, ziprasidone]",LDL,[1]; Age 20-30,79.20
same,LDL,[1]; Age 30-40,98.42
same,LDL,[1]; Age 40-50,75.18
same,LDL,[1]; Age 50-60,135.00
same,LDL,[1]; Age 60-70,154.00
same,LDL,[1]; Age <20,89.50
same,LDL,[1]; All,88.32
same,LDL,[1]; Gender female,98.11
same,LDL,[1]; Gender male,79.05
same,LDL,[1]; Heritage AA,63.17
same,LDL,[1]; Heritage Cauc.,93.19
same,Log (TG),"[1]; human, in vivo",4.968
same,LDL,[1]; patients on the named drug,88.32
same,Coeff. LDL Cholesterol,"[2]; SNP rs40318, gene PIK3R1, allele TC, p 4.80E−02",22.72
same,Coeff. LDL Cholesterol,"[2]; SNP rs1322783, gene DISC1, allele TC, p 1.26E−02",−27.8566
same,Coeff. LDL Cholesterol,"[2]; SNP rs1614845, gene HRH3, allele TC, p 4.20E−02",−21.1697
same,Coeff. LDL Cholesterol,"[2]; SNP rs1951795, gene HIF1A, allele AC, p 2.81E−02",17.21
same,Coeff. LDL Cholesterol,"[2]; SNP rs2067477, gene CHRM1, allele AC, p 4.47E−02",−23.7833
same,Coeff. LDL Cholesterol,"[2]; SNP rs2228139, gene IL1R1, allele GC, p 1.74E−02",−42.4134
same,Coeff. LDL Cholesterol,"[2]; SNP rs2269935, gene PFKM, allele AC, p 1.38E−02",−29.0481
same,Coeff. LDL Cholesterol,"[2]; SNP rs2301108, gene HIF1A, allele AG, p 4.60E−03",27.41
same,Coeff. LDL Cholesterol,"[2]; SNP rs2856929, gene PKM2, allele AG, p 2.55E−02",−21.0303
same,Coeff. HDL Cholesterol,"[2]; SNP rs3757868, gene ACHE, allele AG, p 2.11E−02",9.221
same,Coeff. Ratio of Total Cholesterol to HDL Cholesterol,"[2]; SNP rs3757868, gene ACHE, allele AG, p 2.47E−02",−0.8869
same,Coeff. LDL Cholesterol,"[2]; SNP rs3816873, gene MTP, allele TC, p 2.73E−02",−19.1531
same,Coeff. LDL Cholesterol,"[2]; SNP rs6700734, gene TNFSF6, allele AG, p 1.15E−02",21.53
same,Coeff. LDL Cholesterol,"[2]; SNP rs6967107, gene WBSCR14, allele AC, p 5.00E−02",−28.3763
same,Coeff. LDL Cholesterol,"[2]; SNP rs6976017, gene CYP3A5, allele AG, p 4.34E−03",−45.408
same,Coeff. LDL Cholesterol,"[2]; SNP rs7816340, gene ADRA1A, allele TC, p 4.22E−02",24.97
same,Coeff. LDL Cholesterol,"[2]; SNP rs10082776, gene RARG, allele AG, p 1.92E−02",−24.15
CN1CCN(C2=Nc3cc(Cl)ccc3Nc3ccccc32)CC1 [clozapine],"treated patients with induced weight gain, diabetes and other metabolic derangements",[3],50%
"O=C1CCc2ccc(OCCCCN3CCN(c4cccc(Cl)c4Cl)CC3)cc2N1 [Arapiprazole, arapiprazole]","Intercept (C), Blood Glucose Physiotype",[4],Intercept (C) = 0.3665
same,"Intercept (C), Body Mass Physiotype",[4],Intercept (C) = 0.1845
same,"Intercept (C), Diastolic Blood Pressure Physiotype",[4],Intercept (C) = −0.05506
same,"Intercept (C), HDL Cholesterol Physiotype",[4],Intercept (C) = −0.3706
same,"Intercept (C), LDL Cholesterol Physiotype",[4],Intercept (C) = 0.2441
same,"Intercept (C), Log (TG) Physiotype",[4],Intercept (C) = 0.9167
same,"Intercept (C), Systolic Blood Pressure Physiotype",[4],Intercept (C) = −0.1862
same,"Intercept (C), Waist circumference Physiotype",[4],Intercept (C) = −0.888
same,LDL,"[1]; Age 20-30, N 8",90.5
same,LDL,"[1]; Age 30-40, N 16",97.19
same,LDL,"[1]; Age 40-50, N 8",94.25
same,LDL,"[1]; Age 50-60, N 4",83
same,LDL,"[1]; All, N 36",93.47
same,LDL,"[1]; Heritage African Am, N 3",104
same,LDL,"[1]; Heritage Caucasian, N 33",92.52
same,LDL,"[1]; female, N 10",87
same,BM,"[1]; human, in vivo",86.58
same,Waist,"[1]; human, in vivo",101.34
same,dBP,"[1]; human, in vivo",75.86
same,sBP,"[1]; human, in vivo",122.17
same,LDL,"[1]; male, N 26",95.96
same,LDL,[1]; patients on the named drug,93.47
same,Coeff. LDL Cholesterol,[2]; SNP rs264 LPL allele AG p 3.00E−03,−26.5842
same,Coeff. LDL Cholesterol,[2]; SNP rs7412 APOE allele TC p 1.42E−02,−26.3527
same,Coeff. LDL Cholesterol,[2]; SNP rs140700 SLC6A4 allele AG p 1.76E−02,34.06
same,Coeff. LDL Cholesterol,[2]; SNP rs231460 PYY allele TC p 7.02E−03,−22.8702
same,Coeff. LDL Cholesterol,[2]; SNP rs701492 GAD1 allele TC p 1.25E−04,−41.2222
same,Coeff. LDL Cholesterol,[2]; SNP rs1057910 CYP2C9 allele AC p 9.03E−04,25.75
same,Coeff. LDL Cholesterol,[2]; SNP rs1176744 HTR3B allele TG p 2.77E−02,−14.3889
same,Coeff. LDL Cholesterol,[2]; SNP rs1805002 CCKBR allele AG p 3.93E−02,−32.875
same,Coeff. LDL Cholesterol,[2]; SNP rs1871143 GYS2 allele TG p 4.09E−02,−14.1588
same,Coeff. LDL Cholesterol,[2]; SNP rs2070937 HP allele AG p 3.68E−02,16.59
same,Coeff. LDL Cholesterol,[2]; SNP rs2192752 IL1R1 allele AC p 3.35E−02,19.88
same,Coeff. LDL Cholesterol,[2]; SNP rs2227852 DRD5 allele AG p 1.36E−02,−28.1852
same,Coeff. LDL Cholesterol,[2]; SNP rs2229416 ACACA allele AG p 1.41E−02,−29.2143
same,Coeff. LDL Cholesterol,[2]; SNP rs2306179 GYS2 allele AG p 2.72E−02,−15.1786
same,Coeff. LDL Cholesterol,[2]; SNP rs3760396 CCL2 allele GC p 4.10E−02,−15.8942
same,Coeff. LDL Cholesterol,[2]; SNP rs3762611 GABRA4 allele AG p 1.49E−02,−18.7032
same,Coeff. LDL Cholesterol,[2]; SNP rs3822222 CCKAR allele TC p 8.57E−03,24.98
same,Coeff. LDL Cholesterol,[2]; SNP rs4795180 ACACA allele TG p 1.41E−02,−29.2143
same,Coeff. LDL Cholesterol,[2]; SNP rs5030390 ICAM1 allele AG p 1.30E−02,−27.8333
same,Coeff. LDL Cholesterol,[2]; SNP rs7816340 ADRA1A allele TC p 4.36E−02,−25.5911
same,Coeff. LDL Cholesterol,[2]; SNP rs9904270 RARA allele TC p 2.39E−03,−37.1182
same,Coeff. LDL Cholesterol,[2]; SNP rs10509676 CYP2C19 allele TA p 1.50E−02,−24.25

# From patent US8389247B2, “Physiogenomic method for predicting diabetes and metabolic syndromes induced by psychotropic drugs” (priority 2006, dated 2013)
